Measurements from patent US8841281B2, “Transition metal complexes of amino acids and related ligands and their use as catalysts, anti-microbials, and anti-cancer agents” (Virginia Tech Intellectual Properties, Inc., priority 2011, dated 2014).
Where two headings read alike, the source gives them in different places.

Assays:
[1] = test system: M. chelonae; experiment: 96 well plate dilution test, MIC against M. chelonae; type: cell-based
[2] = test system: MRSA; experiment: Activity against MRSA strains (Table VIIIB, compounds used alone); type: cell-based, Staphylococcus aureus; details: ligand compound used alone, not complexed
[3] = test system: methicillin-resistant Staphylococcus aureus (MRSA); experiment: 96 well plate dilution test, MIC against MRSA; type: cell-based; details: Pd(AA)2 complexes against MRSA
Description: Biological activities of complexes of Formula 1 were tested against various strains of bacteria using the following general procedure. It is noted that complexes of Formula 2 and Formula 3 were tested using the same procedure. Generally, 96 well plate dilution tests were performed using a 96-well plate consisting of 8 rows and 12 columns. Each well is charged with the test organism in the appropriate growth medium. The test complex is also dissolved in the test medium and the first well is charged with sufficient complex solution to provide a concentration of 250 ug/mL. […] Well 12 is used as a control with no test complex. The plates are incubated for 48 hrs in the case of bacteria and 4-5 days in the case of mycobacteria. The wells are read using a spectrophotometer measuring turbidity at 540 nm. A high optical density indicates significant cell growth while a low optical density indicates significant inhibition. All results reported are normalized in terms of inhibition of cell growth and reported as MICs.
Biological activity is expressed in terms of the Minimum Inhibitory Concentration (MIC) in units of micrograms per mL. The MIC is the lowest concentration of the complex at which full inhibition of organism growth is observed.
Octahedral iridium(III) complexes of Formula 2 were tested against various strains of bacteria using the procedure described above for Formula 1. Biological activity is expressed in terms of the MIC in units of micrograms per mL.

[4] = test system: M. abscessus; experiment: 96 well plate dilution test, MIC against M. abscessus; type: cell-based
[5] = test system: M. smegmatis; experiment: 96 well plate dilution test, MIC against M. smegmatis; type: cell-based
[6] = test system: Mycobacterium smegmatis strain mc^2155; type: cell-based
[7] = test system: Mycobacterium avium strain A5
[8] = test system: Mycobacterium bovis strain BCG; type: cell-based
[9] = test system: Mycobacterium chelonae strain EO-P-1
[10] = test system: Mycobacterium marinum ATCC 927
[11] = test system: Mycobacterium intracellulare
[12] = test system: Mycobacterium abscessus strain AAy-P-1
[13] = test system: gram positive MRSA
[14] = Ruthenium piano stool complexes

Compound	Minimal Inhibitory Concentration (MIC) M. smegmatis [6]	Minimal Inhibitory Concentration (MIC) M. avium [7]	Minimal Inhibitory Concentration (MIC) M. chelonae [9]	Minimal Inhibitory Concentration (MIC) M. marinum [10]	Minimal Inhibitory Concentration (MIC) M. intracellulare [11]	Minimal Inhibitory Concentration (MIC) M. abscessus [12]	also measured
Cc1c(C)c(C)[c-](C)c1C.NC(Cc1ccc(O)cc1)C(=O)[O-].[Cl-].[Ir+3] [Ir(Cp*)L-Tyr]	–	–	–	–	–	–	M. chelonae MIC ([1]; Iridium piano stool complexes): Inactive
CN(C)CCN [N,N-dimethylethylenediamine, reference compound]	–	–	–	–	–	–	activity against MRSA when used alone [2]: not active
CNCCN [N-methylethylenediamine, reference compound]	–	–	–	–	–	–	activity against MRSA when used alone [2]: not active
CC(N)C(=O)[O-].CC(N)C(=O)[O-].[Pd+2] (centres unmarked) [Pd(Ala)2]	–	–	–	–	–	–	MIC [3]: inactive
O=C([O][Pd][O]C(=O)C1CCCN1)C1CCCN1 (centres unmarked) [Pd(Pro)2, bis-prolinato palladium(II)]	–	–	–	–	–	–	MIC [3]: 7.5 µg/mL
NC(CO)C(=O)[O-].NC(CO)C(=O)[O-].[Pd+2] (centres unmarked) [Pd(Ser)2]	–	–	–	–	–	–	MIC [3]: inactive
CC(C)C(N)C(=O)[O-].Cc1ccc(C(C)C)cc1.[Cl-].[Ru+2] [Ru(p-cymene)Val]	–	–	–	–	–	–	M. abscessus MIC [4, 14]: 7.5 µg/mL; M. smegmatis MIC [5, 14]: 7.5 µg/mL; M. chelonae MIC [1, 14]: 7.5 µg/mL
CC(N)C(=O)[O][Ru][Cl].Cc1ccc(C(C)C)cc1 [Ru(p-cymene)ala]	–	–	–	–	–	–	M. abscessus MIC [4, 14]: 7.5 µg/mL; M. smegmatis MIC [5, 14]: 7.5 µg/mL; M. chelonae MIC [1, 14]: 7.5 µg/mL
CC(C)CC(N)C(=O)[O-].Cc1ccc(C(C)C)cc1.[Cl-].[Ru+2] [Ru(p-cymene)leu]	–	–	–	–	–	–	M. abscessus MIC [4, 14]: 7.5 µg/mL; M. smegmatis MIC [5, 14]: 3.9 µg/mL; M. chelonae MIC [1, 14]: 7.5 µg/mL
CC[C@@H](CO)NCCN[C@@H](CC)CO [ethambutol, reference compound]	–	–	–	–	–	–	activity against MRSA when used alone [2]: not active
NCCN [ethylenediamine, reference compound]	–	–	–	–	–	–	activity against MRSA when used alone [2]: not active
Cp*IrCl (D-Proline) [1 (D-pro)]	>250 µg/mL	>250 µg/mL	>250 µg/mL	>250 µg/mL	>250 µg/mL	>250 µg/mL	Minimal Inhibitory Concentration (MIC) M. bovis [8]: >250 µg/mL
Cp*IrCl (Glycine) [1 (L-gly)]	61 µg/mL	>250 µg/mL	125 µg/mL	>250 µg/mL	>250 µg/mL	125 µg/mL	–
Cp*IrCl (L-Alanine) [1 (L-ala)]	15 µg/mL	>250 µg/mL	61 µg/mL	>250 µg/mL	61 µg/mL	31 µg/mL	M. abscessus MIC ([4]; Iridium piano stool complexes): 7.5 µg/mL; Minimal Inhibitory Concentration (MIC) M. bovis [8]: 31 µg/mL; M. smegmatis MIC ([5]; Iridium piano stool complexes): 7.5 µg/mL; M. chelonae MIC [1]: 7.5 µg/mL
Cp*IrCl (L-Leucine) [1 (L-leu)]	32 µg/mL	>250 µg/mL	32 µg/mL	>250 µg/mL	32 µg/mL	32 µg/mL	M. smegmatis MIC ([5]; Iridium piano stool complexes): 3.9 µg/mL; M. chelonae MIC [1]: 3.9 µg/mL
Cp*IrCl (L-Serine) [1 (L-ser)]	>250 µg/mL	>250 µg/mL	–	–	–	–	M. chelonae MIC [1]: Inactive
Cp*IrCl (L-Trans-4-Hydroxyproline) [1 (L-hyp)]	>250 µg/mL	>250 µg/mL	–	–	–	–	–
Cp*IrCl (L-Valine) [1 (L-val)]	17 µg/mL	>250 µg/mL	31 µg/mL	>250 µg/mL	>250 µg/mL	61 µg/mL	M. abscessus MIC ([4]; Iridium piano stool complexes): 7.5 µg/mL; Minimal Inhibitory Concentration (MIC) M. bovis [8]: 31 µg/mL; M. smegmatis MIC ([5]; Iridium piano stool complexes): 3.9 µg/mL; M. chelonae MIC [1]: 7.5 µg/mL
Cp*IrCl (N-methyl-Glycine) [1 (L-N-methylgly)]	>250 µg/mL	>250 µg/mL	–	–	–	–	–
Napthalenediamine [reference compound]	–	–	–	–	–	–	activity against MRSA when used alone [2]: active
[Ir(COD)(N,N-dimethylethylenediamine)]Cl [3 (N,N-methyl en)]	>250 µg/mL	>250 µg/mL	>250 µg/mL	>250 µg/mL	>250 µg/mL	>250 µg/mL	Minimal Inhibitory Concentration (MIC) M. bovis [8]: >250 µg/mL; MIC [13]: >250 µg/mL
[Ir(COD)(ethambutol)]Cl [3 (EMB)]	61 µg/mL	>250 µg/mL	61 µg/mL	>250 µg/mL	>250 µg/mL	61 µg/mL	MIC ([13]; gram positive MRSA): 8.1 µg/mL
[Ir(COD)(ethylenediamine)]Cl [3 (en)]	125 µg/mL	>250 µg/mL	61 µg/mL	>251 µg/mL	61 µg/mL	61 µg/mL	MIC ([13]; gram positive MRSA): 8.1 µg/mL
palladium(II) bis-valine [Pd(Val)2]	–	–	–	–	–	–	MIC [3]: 9.0 µg/mL
